Measurements published in patent publication US20190031618A1, “BENZIMIDAZOLE DERIVATIVES USEFUL AS CB-1 INVERSE AGONISTS” (Janssen Pharmaceutica NV, priority 2015, published 2019).
Where two headings read alike, the source gives them in different places.

What was measured:
[1] = biological target: Human CB2R (Cannabinoid receptor 2) (Homo sapiens, UniProt P34972); experiment: CB-2 in vitro cAMP (HTRF) assay; format: cell-based; conditions: HEK cells, cAMP HTRF, 250 nM forskolin; mean where tested more than once; read-out: CB2 HEK_cAMP EC50
Outline: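 HEK-293 cells stably expressing receptor, plated overnight at 4E5 cells/mL, tested with 1/3 serial dilutions of compound in HBSS/HEPES/BSA buffer with 0.5 mM IBMX and forskolin (diluted to 1.5 μM in buffer). cAMP measured by competitive HTRF immunoassay (d2-cAMP, cryptate anti-cAMP), signal inversely proportional to cAMP.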

[2] = biological target: Human CB1R (Cannabinoid receptor 1) (Homo sapiens, UniProt P21554); experiment: CB-1 in vitro cAMP (HTRF) assay; format: cell-based; conditions: cAMP HTRF, 250 nM forskolin, mean where tested more than once
Outline: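 Intracellular cAMP from HTRF ratio (d2-cAMP vs Eu-cryptate anti-cAMP), converted to nM via per-plate standards, in stable human CB1R HEK-293 cells.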

[3] = HEK cells, read-out: CB1 HEK_cAMP EC50

Sequence of Human CB2R (Cannabinoid receptor 2) (P34972 whole entry): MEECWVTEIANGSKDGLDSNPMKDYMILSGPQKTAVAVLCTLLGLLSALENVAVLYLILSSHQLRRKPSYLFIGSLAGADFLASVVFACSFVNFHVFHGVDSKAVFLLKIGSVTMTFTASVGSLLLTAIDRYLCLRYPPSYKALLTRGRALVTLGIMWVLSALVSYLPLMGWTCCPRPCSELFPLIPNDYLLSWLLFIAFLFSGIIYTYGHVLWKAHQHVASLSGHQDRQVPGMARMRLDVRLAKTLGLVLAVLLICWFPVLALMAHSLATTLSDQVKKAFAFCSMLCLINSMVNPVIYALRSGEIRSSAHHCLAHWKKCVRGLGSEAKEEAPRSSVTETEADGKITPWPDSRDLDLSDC
Sequence of Human CB1R (Cannabinoid receptor 1) (P21554 whole entry): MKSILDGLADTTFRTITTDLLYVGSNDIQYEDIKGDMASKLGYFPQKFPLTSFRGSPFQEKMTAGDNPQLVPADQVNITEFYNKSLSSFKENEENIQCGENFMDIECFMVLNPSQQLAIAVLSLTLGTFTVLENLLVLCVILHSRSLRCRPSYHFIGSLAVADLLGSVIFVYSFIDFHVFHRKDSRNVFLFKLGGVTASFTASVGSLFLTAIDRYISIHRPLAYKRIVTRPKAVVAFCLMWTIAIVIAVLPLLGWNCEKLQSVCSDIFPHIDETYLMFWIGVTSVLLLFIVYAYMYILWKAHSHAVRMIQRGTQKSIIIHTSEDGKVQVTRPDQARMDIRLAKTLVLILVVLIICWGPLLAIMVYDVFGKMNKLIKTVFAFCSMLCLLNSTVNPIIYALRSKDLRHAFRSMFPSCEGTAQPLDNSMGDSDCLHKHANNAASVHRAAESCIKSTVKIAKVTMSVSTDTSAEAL

Structure (SMILES) | EC50 [1] [µM] | EC50 [2, 3] [µM] | EC50 ([2]; CB1 HEK_cAMP EC50, HEK cells) [µM]
Cc1ccc(C(c2ccc(Cl)cc2)c2ccc3nc(C4CC4)n(C4CCN(Cc5cccc(C(=O)O)c5)CC4)c3c2)cc1 (centres unmarked) [Example 100] | 6.3 | 0.0194 | 
O=C(O)c1cccc(CN2CCC(n3c(C4CC4)nc4ccc(C(c5ccccc5)c5ccc(Cl)cc5)cc43)CC2)c1 (centres unmarked) [Example 101] | > 10 | 0.0285 | 
O=C(OC[C@@H](O)[C@H](O)CO)N1CCC(n2c(C3CC3)nc3ccc(C(c4ccc(Cl)cc4)c4ccc(Cl)cc4)cc32)CC1 [Example 102] | 8.14 | 0.0333 | 
NC(=O)c1cccc(CN2CCC(n3c(C4CC4)nc4ccc(C(c5ccc(Cl)cc5)c5ccc(Cl)cc5)cc43)CC2)n1 [Example 104] | 6 | 0.0121 | 
NC(=O)c1ccc(CN2CCC(n3c(C4CC4)nc4ccc(C(c5ccc(Cl)cc5)c5ccc(Cl)cc5)cc43)CC2)cn1 [Example 105] | 8 | 0.0051 | 
O=C(O)c1ccc(CN2CCC(n3c(C4CC4)nc4ccc(C(c5ccc(Cl)cc5)c5ccc(Cl)cc5)cc43)CC2)cn1 [Example 106] | > 10 | 0.0601 | 
C=C(CO)c1nc2ccc(C(c3ccc(Cl)cc3)c3ccc(Cl)cc3)cc2n1C1CCN(S(=O)(=O)C(F)(F)F)CC1 [Example 118] | > 10 | 0.098 | 
Clc1ccc(C(c2ccc(Cl)cc2)c2ccc3nc(C4CC4)n(C4CCOCC4)c3c2)cc1 [Example 119] | 6.74 | 0.0949 | 
Clc1ccc(C(c2ccc(Cl)cc2)c2ccc3nc(C4CC4)n(CC4CCOCC4)c3c2)cc1 [Example 120] | 5.43 |  | 0.0249
NC(=O)c1cncc(CN2CCC(n3c(C4CC4)nc4ccc(C(c5ccc(Cl)cc5)c5ccc(Cl)cc5)cc43)CC2)c1 [Example 121] | 7.97 | 0.0051 | 
NC(=O)c1ccc(CN2CCC(n3c(C4CC4)nc4ccc(C(c5ccc(Cl)cc5)c5ccc(Cl)cc5)cc43)CC2)nc1 [Example 122] | 9.1 | 0.0049 | 
O=C(O)c1cncc(CN2CCC(n3c(C4CC4)nc4ccc(C(c5ccc(Cl)cc5)c5ccc(Cl)cc5)cc43)CC2)c1 [Example 123] | 7.5 | 0.0134 | 
NC(=O)c1ccc(CN2CCC(n3c(C4CC4)nc4ccc(C(c5ccc(Cl)cc5)c5ccc(Cl)cc5)cc43)CC2)s1 [Example 126] | 7.8 | 0.0042 | 
NC(=O)c1csc(CN2CCC(n3c(C4CC4)nc4ccc(C(c5ccc(Cl)cc5)c5ccc(Cl)cc5)cc43)CC2)c1 [Example 127] | > 10 | 0.005 | 
O=C(O)c1ccc(CN2CCC(n3c(C4CC4)nc4ccc(C(c5ccc(Cl)cc5)c5ccc(Cl)cc5)cc43)CC2)s1 [Example 128] | 4.89 | 0.0069 | 
O=C(O)c1csc(CN2CCC(n3c(C4CC4)nc4ccc(C(c5ccc(Cl)cc5)c5ccc(Cl)cc5)cc43)CC2)c1 [Example 130] | 8.1 | 0.0155 | 
NC(=O)c1ccc(CN2CCC(n3c(C4CC4)nc4ccc(C(c5ccc(Cl)cc5)c5ccc(Cl)cc5)cc43)CC2)o1 [Example 131] | 6.5 | 0.008 | 
O=C(O)c1ccc(Cn2c(C3CC3)nc3ccc(C(c4ccc(Cl)cc4)c4ccc(Cl)cc4)cc32)cc1 [Example 132] | > 10 | > 10 | 
NC(=O)c1ccc(Cn2c(C3CC3)nc3ccc(C(c4ccc(Cl)cc4)c4ccc(Cl)cc4)cc32)cc1 [Example 133] | 3.5 | 0.812 | 
O=C(O)[C@H]1CC[C@H](n2c(C3CC3)nc3ccc(C(c4ccc(Cl)cc4)c4ccc(Cl)cc4)cc32)CC1 [Example 134] | > 10 | 4.34 | 
NC(=O)[C@H]1CC[C@H](n2c(C3CC3)nc3ccc(C(c4ccc(Cl)cc4)c4ccc(Cl)cc4)cc32)CC1 [Example 135] | > 10 | 0.0532 | 
NC(=O)[C@H]1CC[C@@H](n2c(C3CC3)nc3ccc(C(c4ccc(Cl)cc4)c4ccc(Cl)cc4)cc32)CC1 [Example 136] | 9.1 | 0.032 | 
O=C(O)[C@H]1CC[C@@H](n2c(C3CC3)nc3ccc(C(c4ccc(Cl)cc4)c4ccc(Cl)cc4)cc32)CC1 [Example 137] | > 10 | 9 | 
NC(=O)c1ccc(CN2CCC(n3c(C4CC4)nc4ccc(C(c5ccc(Cl)cc5)c5ccc(Cl)cc5)cc43)CC2)cc1 [Example 138] | 3.9 | 0.0139 | 
NC(=O)c1cccc(CN2CCC(n3c(C4CC4)nc4ccc(C(c5ccc(Cl)cc5)c5ccc(Cl)cc5)cc43)CC2)c1 [Example 141] | > 10 | 0.0033 | 
NC(=O)COc1ccc(N2CCC(n3c(C4CC4)nc4ccc(C(c5ccc(Cl)cc5)c5ccc(Cl)cc5)cc43)CC2)cc1 [Example 142] | 5.25 | 0.0215 | 

Structure (SMILES) | EC50 [1] [µM] | EC50 [2, 3] [µM] | EC50 ([2]; CB1 HEK_cAMP EC50, HEK cells) [µM]
O=C(O)COCC(c1ccc(Cl)cc1)(c1ccc(Cl)cc1)c1ccc2nc(C3CC3)n(C3CCN(S(=O)(=O)C(F)(F)F)CC3)c2c1 [Example 143] | > 10 | 3.92 | 
CCOC(=O)COc1cccc(Cn2c(C3CC3)nc3ccc(C(c4ccc(Cl)cc4)c4ccc(Cl)cc4)cc32)c1 [Example 144] | 4.7 | 0.0152 | 
COc1cccc(Cn2c(C3CC3)nc3ccc(C(c4ccc(Cl)cc4)c4ccc(Cl)cc4)cc32)c1 [Example 146] | > 10 | 0.0337 | 
O=C(O)c1ccc(CN2CCC(n3c(C4CC4)nc4ccc(C(c5ccc(Cl)cc5)c5ccc(Cl)cc5)cc43)CC2)cc1 [Example 147] | 7.56 | 0.0102 | 
O=C(O)c1ccc(C(O)(c2ccc(Cl)cc2)c2ccc3nc(C4CC4)n(C4CCN(S(=O)(=O)C(F)(F)F)CC4)c3c2)cc1 (centres unmarked) [Example 150] | > 10 | 0.972 | 
Nc1ccc(S(=O)(=O)N2CCC(n3c(C4CC4)nc4ccc(C(c5ccc(Cl)cc5)c5ccc(Cl)cc5)cc43)CC2)cc1 [Example 151] | > 10 | 0.0665 | 
O=C(O)COc1ccc(N2CCC(n3c(C4CC4)nc4ccc(C(c5ccc(Cl)cc5)c5ccc(Cl)cc5)cc43)CC2)cc1 [Example 152] | 6.4 | 1.59 | 
NC(=O)COc1cccc(N2CCC(n3c(C4CC4)nc4ccc(C(c5ccc(Cl)cc5)c5ccc(Cl)cc5)cc43)CC2)c1 [Example 153] | 3.61 | 0.0087 | 
O=C(O)COc1cccc(N2CCC(n3c(C4CC4)nc4ccc(C(c5ccc(Cl)cc5)c5ccc(Cl)cc5)cc43)CC2)c1 [Example 154] | 8 | 0.311 | 
O=C(O)Cc1ccc(N2CCC(n3c(C4CC4)nc4ccc(C(c5ccc(Cl)cc5)c5ccc(Cl)cc5)cc43)CC2)cc1 [Example 157] | 3.38 | 0.19 | 
O=C(O)Cc1cccc(N2CCC(n3c(C4CC4)nc4ccc(C(c5ccc(Cl)cc5)c5ccc(Cl)cc5)cc43)CC2)c1 [Example 158] | 5.8 | 0.0679 | 
NC(=O)c1ccc(N2CCC(n3c(C4CC4)nc4ccc(C(c5ccc(Cl)cc5)c5ccc(Cl)cc5)cc43)CC2)cc1 [Example 161] | 2.11 | 0.008 | 
NC(=O)c1cccc(N2CCC(n3c(C4CC4)nc4ccc(C(c5ccc(Cl)cc5)c5ccc(Cl)cc5)cc43)CC2)c1 [Example 162] | 4.49 | 0.0062 | 
O=C(O)c1cccc(N2CCC(n3c(C4CC4)nc4ccc(C(c5ccc(Cl)cc5)c5ccc(Cl)cc5)cc43)CC2)c1 [Example 163] | 7.78 | 0.0916 | 
O=C(O)COc1ccc(-n2c(C3CC3)nc3ccc(C(c4ccc(Cl)cc4)c4ccc(Cl)cc4)cc32)cc1 [Example 165] | > 10 | > 10 | 
O=C(O)c1ccc(S(=O)(=O)N2CCC(n3c(C4CC4)nc4ccc(C(c5ccc(Cl)cc5)c5ccc(Cl)cc5)cc43)CC2)cc1C(F)(F)F [Example 166] | 5.02 | 0.0037 | 
Cc1ccc(S(=O)(=O)N2CCC(n3c(C4CC4)nc4ccc(C(c5ccc(Cl)cc5)c5ccc(Cl)cc5)cc43)CC2)cc1C(N)=O [Example 168] | > 10 | 0.0912 | 
NC(=O)COc1ccc(-n2c(C3CC3)nc3ccc(C(c4ccc(Cl)cc4)c4ccc(Cl)cc4)cc32)cc1 [Example 169] | 7.9 | 0.045 | 
CCOC(=O)COc1ccc(-n2c(C3CC3)nc3ccc(C(c4ccc(Cl)cc4)c4ccc(Cl)cc4)cc32)cc1 [Example 170] | 0.314 | 0.0044 | 
Oc1ccc(-n2c(C3CC3)nc3ccc(C(c4ccc(Cl)cc4)c4ccc(Cl)cc4)cc32)cc1 [Example 171] | > 10 | 0.167 | 
NC(=O)COc1cccc(-n2c(C3CC3)nc3ccc(C(c4ccc(Cl)cc4)c4ccc(Cl)cc4)cc32)c1 [Example 172] | > 10 | 0.0812 | 
CCOC(=O)COc1cccc(-n2c(C3CC3)nc3ccc(C(c4ccc(Cl)cc4)c4ccc(Cl)cc4)cc32)c1 [Example 173] | 9.2 | 0.0559 | 
COC(=O)c1cccc(-n2c(C3CC3)nc3ccc(C(c4ccc(Cl)cc4)c4ccc(Cl)cc4)cc32)c1 [Example 174] | > 10 | 6.55 | 
CCOC(=O)COc1ccc(Cn2c(C3CC3)nc3ccc(C(c4ccc(Cl)cc4)c4ccc(Cl)cc4)cc32)cc1 [Example 175] | 4.75 | 5.42 | 
O=C(O)COc1ccc(Cn2c(C3CC3)nc3ccc(C(c4ccc(Cl)cc4)c4ccc(Cl)cc4)cc32)cc1 [Example 176] | > 10 | > 10 | 
COc1ccc(Cn2c(C3CC3)nc3ccc(C(c4ccc(Cl)cc4)c4ccc(Cl)cc4)cc32)cc1 [Example 177] | 7.9 | 0.0967 | 
